System: TrxR1 protein in U87 cells
Test: TrxR1 protein expression by flow cytometry, U87
Format: cell-based, human
Conditions: U87, 4 µM, 48 h
Method: Flow cytometry was used to assess TrxR1 and ASK1 protein expression in the U87 and U87-TxR cell lines. Cells were seeded and allowed to attach overnight before exposure to compounds 2 and 5 at final concentrations of 2 μM and 4 μM. After 48 h treatment, cells were collected by trypsinization, rinsed with PBS, and subsequently fixed in 4% PFA for 10 min at room temperature. For permeabilization, ice-cold absolute methanol was added, and the samples were maintained at −20 °C overnight. Following this step, cells were washed in PBS and incubated for 1 h in 0.5% BSA/PBS to block nonspecific binding. Pelleted cells were then resuspended in primary antibodies diluted in 0.5% BSA/PBS [(ASK1, 1:200 (ab45178, Abcam, Cambridge, UK); TrxR1, 1:500 (ab124954, Abcam, Cambridge, UK)] and incubated overnight at +4 °C. Cells were then washed in PBS and incubated for 1 h at room temperature in the dark with fluorescently labeled anti-rabbit IgG secondary antibody (Alexa Fluor 488, ab150097, Abcam, Cambridge, UK), diluted 1:1000 in 0.5% BSA/PBS. Following incubation, samples were washed, resuspended in cold PBS, and analyzed by flow cytometry. A minimum of 10,000 events per sample were acquired, and fluorescence was detected in a green fluorescence channel (525 nm). Data acquisition and processing were performed using CytExpert software (version 2.4.0.28; Beckman Coulter, Indianapolis, IN, USA).

CC1(C)CCC[C@]2(C)[C@@H](CC[C@@](C)(O)/C=C/c3ccc(CNCCCCCCCCNCC45CC6CC(CC(C6)C4)C5)s3)[C@](C)(O)CC[C@@H]12 [Compound 2]
TrxR1 levels: slight increase

Reference: publication PMC12735718, “Novel Adamantane–Sclareol Hybrids Exploit ROS Vulnerability to Overcome Multidrug-Resistance in Glioblastoma Cells” (Molecules, 2025)
